Measurements: patent publication US20240335451A1, “ACRYLAMIDE DERIVATIVES USEFUL AS ANTI-INFLAMMATORY AGENTS” (Sitryx Therapeutics Limited, priority 2021, published 2024)

How the values were obtained:
Assay type in all cases: cell-based
[1] = test system: NRF2 (nuclear factor erythroid 2-related factor 2); assay: NRF2 activation assay (DiscoverX PathHunter NRF2 translocation kit, U2OS cells); details: for Emax / EC50: Homo sapiens; for Emax: U2OS; for EC50: U2OS PathHunter cells, 6 hours
[2] = test system: IL-1β cytokine output from THP-1s; assay: THP-1 AlphaLISA IL-1β cytokine assay (differentiated THP-1 cells, LPS then nigericin); details: 30 min pre-incubation, LPS 24 hr, nigericin 1 hour
Procedure: (§1) Measuring Inhibitory Effects on IL-1β and IL-6 Cytokine Output from THP-1s
(§2) The cytokine inhibition profiles of compounds of formula (I) were determined in a differentiated THP-1 cell assay. All assays were performed in RPMI-1640 growth medium (Gibco), supplemented with 10% fetal bovine serum (FBS; Gibco), 1% penicillin-streptomycin and 1% sodium pyruvate unless specified otherwise. The IL-1β and IL-6 cytokine inhibition assays were each run in a background of differentiated THP-1 cells as described below. All reagents described were from Sigma-Aldrich unless specified otherwise. Compounds were prepared as 10 mM DMSO stocks.
(§3) THP-1 cells were expanded as a suspension up to 80% confluence in appropriate growth medium. Cells were harvested, suspended, and treated with an appropriate concentration of phorbol 12-myristate 13-acetate (PMA) over a 72 hr period (37° C./5% CO2).
(§4) Following 72 hrs of THP-1 cell incubation, cellular medium was removed and replaced with fresh growth media containing 1% of FBS. Working concentrations of compounds were prepared separately in 10% FBS treated growth medium and pre-incubated with the cells for 30 minutes (37° C./5% CO2). Following the 30 minute compound pre-incubation, THP-1s were treated with an appropriate concentration of LPS and the THP-1s were subsequently incubated for a 24 hr period (37° C./5% CO2). An appropriate final concentration of Nigericin was then dispensed into the THP-1 plates and incubated for 1 hour (37° C./5% CO2) before THP-1 supernatants were harvested and collected in separate polypropylene 96-well holding plates.
(§5) Reagents from each of the IL-1β and IL-6 commercial kits (Perkin Elmer) were prepared and run according to the manufacturer's instructions. Subsequently, fluorescence signal detection in a microplate reader was measured (EnVision® Multilabel Reader, Perkin Elmer).
(§6) Percentage inhibition was calculated per cytokine by normalizing the sample data to the high and low controls used within each plate (+/−LPS respectively).

[3] = test system: IL-6 cytokine output from THP-1s; assay: THP-1 AlphaLISA IL-6 cytokine assay (differentiated THP-1 cells, LPS then nigericin); details: 30 min pre-incubation, LPS 24 hr, nigericin 1 hour
Procedure: as §1, §2, §3, §4, §5, §6

[4] = +GSH, normalised to dimethyl fumarate high control
[5] = −GSH, normalised to dimethyl fumarate high control
[6] = +GSH (30 minute compound/GSH pre-incubation)

Structure (SMILES)	IC50 ([2]; Homo sapiens)	IC50 ([3]; Homo sapiens)	other results
C=C(Cc1ccccc1Cl)C(=O)O [2-(2-chlorobenzyl)acrylic acid, reference compound]	> 100 µM		Emax [1, 4]: 9%; Emax [1, 5]: 2%; EC50 [1, 6]: > 100 µM; EC50 ([1]; −GSH): > 100 µM
C=C(CC(=O)OCCCCCCCC)C(=O)O [4-octyl itaconate, reference compound]			NRF2 activation Emax, +GSH [1, 4]: 148%; NRF2 activation Emax, −GSH [1, 5]: 165%; IC50 [3]: 21.1 µM; IC50 [2]: 39.8 µM
C=C(CC(=O)OC1(c2ccc(C(F)(F)F)cc2)CCC1)C(=O)NC [Example 7, 1-(4-(trifluoromethyl)phenyl)cyclobutyl 3-(methylcarbamoyl)but-3-enoate]	20.5 µM	12.1 µM	Emax [1, 4]: 27%; Emax [1, 5]: 119%; EC50 [1, 6]: > 100 µM; EC50 ([1]; −GSH): 12.6 µM
C=C(CC(=O)OC1(c2ccc(C(F)(F)F)cc2)CCC1)C(N)=O [Example 8, 1-(4-(trifluoromethyl)phenyl)cyclobutyl 3-carbamoylbut-3-enoate]	34.3 µM	13.9 µM	Emax [1, 4]: 7%; Emax [1, 5]: 21%; EC50 [1, 6]: > 100 µM; EC50 ([1]; −GSH): > 100 µM
C=C(CC(=O)O[C@@H](C)c1ccc(C(F)(F)F)cc1)C(N)=O [Example 9, (S)-1-(4-(trifluoromethyl)phenyl)ethyl 3-carbamoylbut-3-enoate]	10 µM	4.5 µM	Emax [1, 4]: 26%; Emax [1, 5]: 110%; EC50 [1, 6]: > 100 µM; EC50 ([1]; −GSH): 13.7 µM
C=C(CC(=O)O[C@H](C)c1ccc(C(F)(F)F)cc1)C(N)=O [Example 12, (R)-1-(4-(trifluoromethyl)phenyl)ethyl 3-carbamoylbut-3-enoate]	20 µM	14.4 µM	
C=C(CC(=O)OC1(c2ccc(C(F)(F)F)cc2)COC1)C(=O)NC [Example 13, 3-(4-(trifluoromethyl)phenyl)oxetan-3-yl 3-(methylcarbamoyl)but-3-enoate]	17.5 µM	2.6 µM	
C=C(CC(=O)OC1(c2ccc(C(F)(F)F)cc2)COC1)C(N)=O [Example 14, 3-(4-(trifluoromethyl)phenyl)oxetan-3-yl 3-carbamoylbut-3-enoate]	6.5 µM	4.4 µM	
C=C(CC(=O)OC1(c2ccc(C(F)(F)F)cn2)COC1)C(=O)NC [Example 15, 3-(5-(trifluoromethyl)pyridin-2-yl)oxetan-3-yl 3-(methylcarbamoyl)but-3-enoate]	13.1 µM	10.9 µM	
C=C(CC(=O)OC1(c2ccc(C(F)(F)F)cn2)COC1)C(N)=O [Example 16, 3-(5-(trifluoromethyl)pyridin-2-yl)oxetan-3-yl 3-carbamoylbut-3-enoate]	8.6 µM	4.6 µM	
C=C(CC(=O)OC1(c2ccc(C(F)(F)F)cn2)CCC1)C(=O)NC [Example 17, 1-(5-(trifluoromethyl)pyridin-2-yl)cyclobutyl 3-(methylcarbamoyl)but-3-enoate]	14.4 µM	4.8 µM	
C=C(CC(=O)OC1(c2ccc(C(F)(F)F)cn2)CCC1)C(N)=O [Example 18, 1-(5-(trifluoromethyl)pyridin-2-yl)cyclobutyl 3-carbamoylbut-3-enoate]	9.3 µM	14.4 µM	
C=C(CC(=O)OC1(c2cc(Cl)cc(Cl)c2)CCC1)C(=O)NC [Example 19, 1-(3,5-dichlorophenyl)cyclobutyl 3-(methylcarbamoyl)but-3-enoate]	17.5 µM	3.3 µM	
C=C(CC(=O)OC1(c2ccc(C(F)(F)F)c(F)c2)CCC1)C(N)=O [Example 21, 1-(3-fluoro-4-(trifluoromethyl)phenyl)cyclobutyl 3-carbamoylbut-3-enoate]	15.4 µM	6.9 µM	
C=C(CC(=O)OC1(c2ccc(C(F)(F)F)cc2)CCC1)C(=O)NC1CCN(C)CC1 [Example 23, 1-(4-(trifluoromethyl)phenyl)cyclobutyl 3-((1-methylpiperidin-4-yl)carbamoyl)but-3-enoate]	> 31.6 µM	24.1 µM	
C=C(CC(=O)OC1(c2ccc(C(F)(F)F)cc2)CCC1)C(=O)NCCN1CCOCC1 [Example 24, 1-(4-(trifluoromethyl)phenyl)cyclobutyl 3-((2-morpholinoethyl)carbamoyl)but-3-enoate]	8.6 µM	6.8 µM	
C=C(CC(=O)OC1(c2ccc(C(F)(F)F)cc2)CCC1)C(=O)NC1CS(=O)(=O)C1 [Example 25, 1-(4-(trifluoromethyl)phenyl)cyclobutyl 3-((1,1-dioxidothietan-3-yl)carbamoyl)but-3-enoate]	19.9 µM	9.5 µM	
C=C(CC(=O)OC1(c2ccc(C(F)(F)F)cc2)CCC1)C(=O)NCCS(C)(=O)=O [Example 26, 1-(4-(trifluoromethyl)phenyl)cyclobutyl 3-((2-(methylsulfonyl)ethyl)carbamoyl)but-3-enoate]	18 µM	11.3 µM	
C=C(CC(=O)OC1(c2ccc(C(F)(F)F)cc2)CCC1)C(=O)NCC(=O)O [Example 29, (2-methylene-4-oxo-4-(1-(4-(trifluoromethyl)phenyl)cyclobutoxy)butanoyl) glycine]	> 100 µM	> 31.6 µM	

Second part, led by results:

IC50 ([2]; Homo sapiens)	IC50 ([3]; Homo sapiens)	Structure (SMILES)	other results
1 µM	0.9 µM	C=C(Cc1nc(C2(c3ccc(SC(F)(F)F)cc3)CC2)no1)C(=O)Nc1ncc(C)s1 [Example 1, N-(5-methylthiazol-2-yl)-2-((3-(1-(4-((trifluoromethyl)thio)phenyl)cyclopropyl)-1,2,4-oxadiazol-5-yl)methyl)acrylamide]	
0.4 µM	0.6 µM	C=C(Cc1nc(C2(c3ccc(SC(F)(F)F)cc3)CC2)no1)C(=O)Nc1cnccn1 [Example 2, N-(pyrazin-2-yl)-2-((3-(1-(4-((trifluoromethyl)thio)phenyl)cyclopropyl)-1,2,4-oxadiazol-5-yl)methyl)acrylamide]	Emax [1, 4]: 79%; Emax [1, 5]: 117%; EC50 [1, 6]: 5.2 µM; EC50 ([1]; −GSH): 0.9 µM
4.5 µM		C=C(Cc1nc(Cc2ccc(CCCC)cc2)no1)C(=O)Nc1ccccn1 [Example 3, 2-((3-(4-butylbenzyl)-1,2,4-oxadiazol-5-yl)methyl)-N-(pyridin-2-yl)acrylamide]	
1.1 µM		C=C(Cc1nc(Cc2ccc(CCCC)cc2)no1)C(=O)Nc1cnccn1 [Example 4, 2-((3-(4-butylbenzyl)-1,2,4-oxadiazol-5-yl)methyl)-N-(pyrazin-2-yl)acrylamide]	
1.9 µM		C=C(Cc1nc(Cc2ccc(CCCC)cc2)no1)C(=O)Nc1ncc(C)s1 [Example 5, 2-((3-(4-butylbenzyl)-1,2,4-oxadiazol-5-yl)methyl)-N-(5-methylthiazol-2-yl)acrylamide]	
3.8 µM	2.1 µM	C=C(CC(=O)OC(C)(C)CCCCCC)C(=O)Nc1cnccn1 [Example 6, 2-methyloctan-2-yl 3-(pyrazin-2-ylcarbamoyl)but-3-enoate]	
10.5 µM	3.5 µM	C=C(CC(=O)O[C@@H](C)c1ccc(C(F)(F)F)cc1)C(=O)NC [Example 10, (S)-1-(4-(trifluoromethyl)phenyl)ethyl 3-(methylcarbamoyl)but-3-enoate]	
3.3 µM	1.9 µM	C=C(CC(=O)O[C@H](C)c1ccc(C(F)(F)F)cc1)C(=O)NC [Example 11, (R)-1-(4-(trifluoromethyl)phenyl)ethyl 3-(methylcarbamoyl)but-3-enoate]	
